Experimental data published in ChEMBL document CHEMBL1201862, “PubChem BioAssay data set” (2004).
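Cells were grown in 96-well plates and exposed to each compound for 48 hours at five concentrations; endpoints were interpolated linearly between bracketing concentrations, or set to the highest concentration if not reached. Abbreviation: GI50, concentration required for 50% inhibition of growth.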 Activity calls are given as the source filed them. No stated cut-off is given here; in the data, active = GI50 up to about 1.1 µM and inactive = higher.

How the values were obtained:
Assay in all cases: growth of human tumour cells (NCI), 48 h
[1] = tested on: OVCAR-3
[2] = tested on: SK-MEL-2
[3] = tested on: CCRF-CEM
[4] = tested on: MOLT-4
[5] = tested on: HCC 2998
[6] = tested on: NCI-H522
[7] = tested on: OVCAR-8
[8] = tested on: HCT-116
[9] = tested on: DLD-1
[10] = tested on: RXF 631
[11] = tested on: A549
[12] = tested on: KM-20L2
[13] = tested on: SR
[14] = tested on: ACHN
[15] = tested on: K562
[16] = tested on: DMS-114
[17] = tested on: M14
[18] = tested on: M19-MEL
[19] = tested on: U-251
[20] = tested on: LXFL 529
[21] = tested on: NCI-H460
[22] = tested on: SF-539
[23] = tested on: HOP-62
[24] = tested on: HOP-92
[25] = tested on: SK-MEL-28
[26] = tested on: SF-268
[27] = tested on: KM12
[28] = tested on: RXF 393
[29] = tested on: UACC-62
[30] = tested on: HL-60
[31] = tested on: EKVX
[32] = tested on: SW-620
[33] = tested on: UO-31
[34] = tested on: CAKI-1
[35] = tested on: NCI-H226
[36] = tested on: UACC-257
[37] = tested on: SNB-19
[38] = tested on: COLO 205
[39] = tested on: OVCAR-4
[40] = tested on: SNB-75
[41] = tested on: DMS-273
[42] = tested on: HCT-15
[43] = tested on: SK-MEL-5
[44] = tested on: HOP-18
[45] = tested on: RPMI-8226
[46] = tested on: XF498
[47] = tested on: HT-29
[48] = tested on: NCI-H23
[49] = tested on: SF-295
[50] = tested on: SN12C
[51] = tested on: Malme-3M
[52] = tested on: TK-10
[53] = tested on: 786-0
[54] = tested on: LOX IMVI
[55] = tested on: SK-OV-3
[56] = tested on: IGROV-1
[57] = tested on: SNB-78
[58] = tested on: OVCAR-5

In the case of `CC(=O)NC(CCCCNC(=O)NCCCl)C(=O)NCc1ccccc1` (centres undefined), the GI50 [1] is reported as > 100 µM (inactive), the GI50 [2] is reported as > 100 µM (inactive) and the GI50 [3] is reported as > 100 µM (inactive). The GI50 [4] was > 100 µM (inactive), the GI50 [5] was > 100 µM (inactive) and the GI50 [6] was > 100 µM (inactive). The GI50 [7] was > 100 µM (inactive), the GI50 [8] was > 100 µM (inactive) and the GI50 [9] was > 100 µM (inactive). For the same molecule, the GI50 [10] was > 100 µM (inactive), the GI50 [11] was > 100 µM (inactive) and the GI50 [12] was > 100 µM (inactive). For the same molecule, the GI50 [13] was > 100 µM (inactive), the GI50 [14] was > 100 µM (inactive) and the GI50 [15] was > 100 µM (inactive). The GI50 [16] was > 100 µM (inactive), the GI50 [17] was > 100 µM (inactive) and the GI50 [18] was > 100 µM (inactive). For the same molecule, the GI50 [19] was > 100 µM (inactive), the GI50 [20] was > 100 µM (inactive) and the GI50 [21] was > 100 µM (inactive). For the same molecule, the GI50 [22] was > 100 µM (inactive), the GI50 [23] was > 100 µM (inactive) and the GI50 [24] was > 100 µM (inactive). For the same molecule, the GI50 [25] was > 100 µM (inactive), the GI50 [26] was > 100 µM (inactive) and the GI50 [27] was > 100 µM (inactive). The GI50 [28] was > 100 µM (inactive), the GI50 [29] was > 100 µM (inactive) and the GI50 [30] was > 100 µM (inactive). For the same molecule, the GI50 [31] was > 100 µM (inactive), the GI50 [32] was > 100 µM (inactive) and the GI50 [33] was > 100 µM (inactive). The GI50 [34] was > 100 µM (inactive), the GI50 [35] was > 100 µM (inactive) and the GI50 [36] was > 100 µM (inactive). For the same molecule, the GI50 [37] was > 100 µM (inactive), the GI50 [38] was > 100 µM (inactive) and the GI50 [39] was > 100 µM (inactive). The GI50 [40] was > 100 µM (inactive), the GI50 [41] was > 100 µM (inactive) and the GI50 [42] was > 100 µM. The GI50 [43] was > 100 µM (inactive), the GI50 [44] was > 100 µM (inactive) and the GI50 [45] was > 100 µM (inactive). The GI50 [46] was > 100 µM (inactive), the GI50 [47] was > 100 µM (inactive) and the GI50 [48] was > 100 µM (inactive). For the same molecule, the GI50 [49] was > 100 µM (inactive), the GI50 [50] was > 100 µM (inactive) and the GI50 [51] was > 100 µM (inactive). The GI50 [52] was > 100 µM (inactive) and the GI50 [53] was > 100 µM (inactive).

With `COC1(OC)CC2CCCCC2=C(C)N1S(=O)(=O)c1ccccc1` (centres undefined) the GI50 [54] was > 100 µM (inactive), the GI50 [1] was > 100 µM (inactive) and the GI50 [2] was > 100 µM (inactive). The GI50 [3] was > 100 µM (inactive), the GI50 [4] was > 10 µM (inactive) and the GI50 [6] was > 100 µM (inactive). The GI50 [7] was > 100 µM (inactive), the GI50 [8] was > 100 µM (inactive) and the GI50 [9] was > 100 µM (inactive). For the same molecule, the GI50 [10] was > 100 µM (inactive), the GI50 [55] was > 100 µM (inactive) and the GI50 [11] was > 100 µM (inactive). The GI50 [12] was > 100 µM (inactive), the GI50 [13] was > 100 µM (inactive) and the GI50 [14] was > 100 µM (inactive). For the same molecule, the GI50 [15] was > 100 µM (inactive), the GI50 [17] was > 100 µM (inactive) and the GI50 [18] was > 100 µM (inactive). The GI50 [19] was > 100 µM (inactive), the GI50 [20] was > 100 µM (inactive) and the GI50 [21] was > 100 µM (inactive). For the same molecule, the GI50 [56] was > 100 µM (inactive), the GI50 [22] was > 100 µM (inactive) and the GI50 [23] was > 100 µM (inactive). For the same molecule, the GI50 [24] was > 100 µM (inactive), the GI50 [25] was > 100 µM (inactive) and the GI50 [57] was > 100 µM (inactive). The GI50 [26] was > 100 µM (inactive), the GI50 [27] was > 100 µM (inactive) and the GI50 [28] was > 100 µM (inactive). For the same molecule, the GI50 [29] was > 100 µM (inactive), the GI50 [30] was > 100 µM (inactive) and the GI50 [31] was > 100 µM (inactive). The GI50 [32] was > 100 µM (inactive), the GI50 [58] was > 100 µM (inactive) and the GI50 [33] was > 100 µM (inactive). For the same molecule, the GI50 [34] was > 100 µM (inactive), the GI50 [35] was > 100 µM (inactive) and the GI50 [36] was > 100 µM (inactive). The GI50 [37] was > 100 µM (inactive), the GI50 [38] was > 100 µM (inactive) and the GI50 [39] was > 100 µM (inactive). The GI50 [40] was > 100 µM (inactive), the GI50 [41] was > 100 µM (inactive) and the GI50 [42] was > 100 µM. For the same molecule, the GI50 [43] was > 100 µM (inactive), the GI50 [44] was > 100 µM (inactive) and the GI50 [45] was > 100 µM (inactive). The GI50 [46] was > 100 µM (inactive), the GI50 [47] was > 100 µM (inactive) and the GI50 [48] was > 100 µM (inactive). For the same molecule, the GI50 [49] was > 100 µM (inactive), the GI50 [50] was > 100 µM (inactive) and the GI50 [51] was > 100 µM (inactive). The GI50 [52] was > 100 µM (inactive) and the GI50 [53] was > 100 µM (inactive).
